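Cells were grown in 96-well plates and exposed to each compound for 48 hours at five concentrations; endpoints were interpolated linearly between bracketing concentrations, or set to the highest concentration if not reached. The concentration for 50% growth inhibition is given as GI50. At the TGI there is no net growth.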
How the values were obtained:
Experiment in all cases: NCI tumour cell line growth inhibition, 48 h
HCC-2998 colon = system: HCC-2998 colon
HOP-62 NSCLC = system: HOP-62 NSCLC
MALME-3M melanoma = system: MALME-3M melanoma
NCI-H23 lung = system: NCI-H23 lung
RPMI-8226 leukemia = system: RPMI-8226 leukemia
SK-MEL-28 melanoma = system: SK-MEL-28 melanoma
SNB-19 CNS = system: SNB-19 CNS
SNB-75 CNS = system: SNB-75 CNS
UACC-62 melanoma = system: UACC-62 melanoma
UO-31 renal = system: UO-31 renal

SMILES | GI50 (HCC-2998 colon) | TGI (HCC-2998 colon) | GI50 (HOP-62 NSCLC) | TGI (HOP-62 NSCLC) | GI50 (MALME-3M melanoma) | TGI (MALME-3M melanoma) | GI50 (NCI-H23 lung) | TGI (NCI-H23 lung) | GI50 (RPMI-8226 leukemia) | TGI (RPMI-8226 leukemia) | GI50 (SK-MEL-28 melanoma) | TGI (SK-MEL-28 melanoma) | GI50 (SNB-19 CNS) | TGI (SNB-19 CNS) | GI50 (SNB-75 CNS) | TGI (SNB-75 CNS) | GI50 (UACC-62 melanoma) | TGI (UACC-62 melanoma) | GI50 (UO-31 renal) | TGI (UO-31 renal)
OC1CCC(Oc2cccc3cnc(Nc4ccc5nc[nH]c5c4)nc23)CC1 (stereo not given) | 0.708 µM | 9.09 µM | 0.331 µM | 14.9 µM | 1.03 µM | 5.01 µM | 0.21 µM | 1.63 µM | 0.219 µM | 0.659 µM | 0.791 µM | 6.83 µM | 0.407 µM | 49.6 µM | 0.12 µM | 2.21 µM | 0.573 µM | 7.26 µM | 0.227 µM | 1.88 µM
O=C(O)c1[nH]c(C(=O)O)c(CC(F)(F)C(F)(F)C(F)(F)F)c1CC(F)(F)C(F)(F)C(F)(F)F |  | > 100 µM |  | > 100 µM |  | > 100 µM |  | > 100 µM |  | > 100 µM |  | > 100 µM |  | > 100 µM |  | > 100 µM |  | > 100 µM |  | > 100 µM
O=C(Nc1ccc(Br)cc1)c1cc(Br)cc(Br)c1O | 3.35 µM | 10.1 µM | 2.45 µM | 6.5 µM | 2.15 µM | 5.63 µM | 2.18 µM | 6.8 µM | 1.67 µM | 6.26 µM | 4.71 µM | 31.4 µM | 3.55 µM | > 100 µM | 2.16 µM | 7.11 µM | 2.56 µM | 15 µM | 3.1 µM | 11.5 µM
COc1ccc([N+](=O)[O-])c2c(NCC(O)CO)ccnc12 (stereo not given) |  | > 100 µM |  | > 100 µM |  | 44.7 µM |  | 40.4 µM |  | > 100 µM |  | > 100 µM |  | > 100 µM |  | > 100 µM |  | 58.9 µM |  | > 100 µM
O=C(N=Nc1c(O)[nH]c2ccccc12)c1ccccc1O |  | > 100 µM |  | > 100 µM |  | > 100 µM |  | 92 µM |  | > 100 µM |  | > 100 µM |  | > 100 µM |  | 94.2 µM |  | > 100 µM |  | 79.9 µM
CC/C=C\C[C@H](O)C/C=C1/C(=O)C=C[C@@H]1C/C=C\CCCC(N)=O | 1.98 µM | 3.7 µM | 2.99 µM | 7.77 µM | 2.06 µM | 5.23 µM | 2.13 µM | 5.27 µM | 1.14 µM | 5.24 µM | 1.93 µM | 4.26 µM | 7.43 µM | 21.6 µM | 10.5 µM | 22.3 µM | 1.36 µM | 3.36 µM | 1.63 µM | 3.42 µM
CC(SC1=CC(=O)c2c(O)ccc(O)c2C1=O)C(=O)O (stereo not given) |  | > 100 µM |  | > 100 µM |  | > 64.6 µM |  | > 90.4 µM |  | > 96.2 µM |  | > 80.1 µM |  | > 100 µM |  | > 75.9 µM |  | 36.6 µM |  | > 75.4 µM
[Cl][Sn]([c]1ccccc1)[c]1ccccc1 | 14.1 µM | 27.8 µM | 22.9 µM | 40.7 µM | 2.19 µM | 4.66 µM | 5.19 µM | 18.1 µM | 2.09 µM | 6.14 µM | 1.58 µM | 3.62 µM | 11.6 µM | 23.8 µM | 6.18 µM | 19.4 µM | 3.22 µM | 9.57 µM | 17.2 µM | 30.9 µM
COC(=O)c1ccc2c(c1)c1c(C)c3cnccc3c(C)c1n2C | 0.137 µM | 3.85 µM | 0.0538 µM | 0.995 µM | 0.0615 µM | 0.314 µM | 0.053 µM | 0.328 µM | 0.0475 µM | 0.409 µM | 0.0951 µM | 0.444 µM | 0.0509 µM | 7.65 µM | 0.072 µM | 0.563 µM | 0.0416 µM | 0.151 µM | 0.0369 µM | 0.821 µM
Cc1cc2occ(C)c(=O)c2c2c1OC(C)(C)S2 |  | > 100 µM |  | > 100 µM |  | > 100 µM |  | > 100 µM |  | > 100 µM |  | > 100 µM |  | > 100 µM |  | > 100 µM |  | > 100 µM |  | > 100 µM
Cc1ccc(-c2cc3nc(-c4ccccc4)nc(C(Cl)Cl)n3n2)cc1 | 0.891 µM | 1.69 µM | 0.666 µM | 2.11 µM | 36.1 µM | > 50 µM | 1.95 µM | > 50 µM | 0.802 µM | 3.45 µM | 1.54 µM | 5.32 µM | 0.759 µM | 1.73 µM | 0.295 µM | 1.04 µM | 0.933 µM | 2.1 µM | 0.719 µM | 1.41 µM
CC1(C)C(=O)/C(=C\c2ccco2)C[C@]2(C)[C@H]3CC=C4[C@@H]5C[C@](C)(C(=O)O)CC[C@]5(C)CC[C@@]4(C)[C@]3(C)CC[C@@H]12 | 11 µM | 24.3 µM | 10.1 µM | 28.5 µM | 12.7 µM | 29.3 µM | 8.89 µM | 25.4 µM | 4.2 µM | 47.9 µM | 15.1 µM | 31.1 µM | 10.2 µM | 22.7 µM | 24.6 µM | > 100 µM | 6.49 µM | 20.3 µM | 5.01 µM | 19.9 µM
Cc1c(C(=O)CC(=O)C(=O)NC2C3CC4CC(C3)CC2C4)[n+](=O)c2ccccc2n1[O-] (stereo not given) |  | > 100 µM |  | > 100 µM |  | > 100 µM |  | > 100 µM |  | > 100 µM |  | > 100 µM |  | > 100 µM |  | > 100 µM |  | > 100 µM |  | > 100 µM
CC(=O)O/C(C)=C\C(=O)O/N=C(\N)c1ccc(C)cc1 |  | > 100 µM |  | > 100 µM |  | 71.5 µM |  | 48.4 µM |  | > 100 µM |  | 42.7 µM |  | > 100 µM |  | 61 µM |  | 56.7 µM |  | > 100 µM
CCOC(=O)/C=C(/CN1C(=O)c2ccccc2C1=O)c1ccccc1 |  | > 100 µM |  | > 100 µM |  | > 100 µM |  | > 100 µM |  | > 100 µM |  | > 100 µM |  | > 100 µM |  | > 100 µM |  | > 100 µM |  | > 100 µM
CN(C)CCNC(=O)c1cc([N+](=O)[O-])cc2ccc(-c3ccccc3)nc12 |  | 20.3 µM |  | 38.1 µM |  | 19.5 µM |  | 27.6 µM |  | 70.2 µM |  | 27.4 µM |  | 35.5 µM |  | 23.8 µM |  | 15.7 µM |  | 11.2 µM
